Experiments:
[1] = target: T1, Replicase polyprotein 1ab (Severe acute respiratory syndrome coronavirus 2, UniProt P0DTD1); assay: Inhibition of SARS-CoV-2 papain-like protease
[2] = target: T1, Replicase polyprotein 1ab; assay: Inhibition of SARS-CoV-2 papain-like protease assessed as viral protease-mediated deubiquitination using ubiquitinated substrate incubated for 16 to 18 hrs by fluorescence based assay
[3] = target: T1, Replicase polyprotein 1ab; assay: Inhibition of SARS-CoV-2 papain-like protease using fluorescent substrate preincubated for 1 hr by fluorescence based assay
[4] = target: T1, Replicase polyprotein 1ab; assay: Inhibition of SARS-CoV-2 papain-like protease-mediated de-ISGylation
[5] = target: T1, Replicase polyprotein 1ab; assay: Inhibition of TAP-tagged SARS-CoV-2 papain-like protease nsp23
[6] = target: T1, Replicase polyprotein 1ab; assay: Inhibition of TAP-tagged SARS-CoV-2 papain-like protease nsp123
[7] = target: T1, Replicase polyprotein 1ab; assay: Binding affinity to CM5 chip immobilized full-length wild-type SARS-CoV-2 papain-like protease (1564 to 1878 residues) expressed in Escherichia coli BL21 (DE3) assessed as dissociation constant incubated for 90 secs by SPR analysis
[8] = target: T1, Replicase polyprotein 1ab; assay: Inhibition of N-terminal 3xFlag-His6-tagged SARS-CoV-2 papain-like protease nsp3 (1564 to 1878 residues) expressed in baculovirus infected Sf9 insect cells using Pro3 as substrate by fluorescence based assay
[9] = target: T1, Replicase polyprotein 1ab; assay: Inhibition of C-terminal His-tagged SARS-CoV-2 BetaCoV/Wuhan/WIV04/2019 papain-like protease (1564 to 1876 residues) expressed in Escherichia coli BL21 (DE3) using Dabcyl-FTLRGG/APTKV as substrate preincubated for 1 hr followed by substrate addition measured after 3 hrs by FRET assay
[10] = target: T1, Replicase polyprotein 1ab; assay: Inhibition of recombinant SARS-CoV-2 papain-like protease using Z-Arg-Leu-Arg-Gly-Gly-AMC as substrate by enzymatic assay
[11] = target: T1, Replicase polyprotein 1ab; assay: Inhibition of recombinant SARS-CoV-2 main protease using ATLQAIAS as substrate preincubated for 15 mins by enzymatic assay
[12] = target: T1, Replicase polyprotein 1ab; assay: Inhibition of SARS-CoV-2 papain-like protease expressed in Escherichia coli BL21 (DE3) using Z-LRGG-AMC/Z-RLRGG-AMC as substrate preincubated for 30 mins by enzymatic assay
[13] = target: T1, Replicase polyprotein 1ab; assay: Inhibition of SARS-CoV-2 papain-like protease using ISG15-Rh as substrate
[14] = target: T1, Replicase polyprotein 1ab; assay: Inhibition of 6xHis-tagged SARS-CoV-2 papain-like protease expressed in Escherichia coli BL21 (DE3) using ISG15-FITC as substrate incubated for 30 mins by fluorescence polarization assay
[15] = target: T1, Replicase polyprotein 1ab; assay: Binding affinity to biotin-tagged SARS-CoV-2 papain-like protease expressed in Escherichia coli BL21 (DE3) assessed as dissociation constant incubated for 3 mins by BLI assay
[16] = target: T1, Replicase polyprotein 1ab; assay: Inhibition of SARS-CoV-2 papain-like protease using RLRGG-AMC as substrate

## O=C1c2ccccc2C(=O)c2oc(-c3ccccc3)nc21
[1]
  IC50: 0.56 µM

## O=C1c2c(O)cccc2[C@@H]([C@@H]2O[C@H](CO)[C@@H](O)[C@H](O)[C@H]2O)c2cc(CO)cc(O)c21
[2]
  IC50: 17.5 µM
[3]
  IC50: 16.1 µM

## Nc1nc2nc[nH]c2c(=S)[nH]1
[4]
  IC50: 0.1 µM
[5]
  IC50: 1 µM
[6]
  IC50: 0.5 µM

## C[C@H](c1cccc2ccccc12)N1CCC(C(=O)NCc2cc(F)cc(NC(=O)N3CCN(C)CC3)c2)CC1
[7]
  Kd: 2.6 µM

## O=C1c2ccccc2-c2nc3nnnn3nc21
[8]
  IC50: 0.26 µM

## C[C@H](c1ccccc1Cl)N(C)Cc1cc(O)ccc1Cl
[9]
  IC50: 6.67 µM

## CN(Cc1cn(C2C3=C(OC2(C)C)c2ccccc2C(=O)C3=O)nn1)C1=CC(=O)c2ccccc2C1=O (stereo unspecified)
[10]
  IC50: 2.2 µM

## CN(Cc1cn(C2C3=C(OC2(C)C)c2ccccc2C(=O)C3=O)nn1)C1=C(Br)C(=O)c2ccccc2C1=O (stereo unspecified)
[11]
  IC50: 66 µM
[10]
  IC50: 3.1 µM

## C[C@@H](NC(=O)c1ccccc1CCC(=O)NNC(=O)/C(C#N)=C/C1CC1)c1cccc2ccccc12
[12]
  IC50: > 200 µM

## OCCc1ccc(O)cc1 [4-(2-Hydroxy-ethyl)-phenol]
[13]
  IC50: 6.68 µM

## O=Cc1ccc(O)cc1 [4-hydroxybenzaldehyde]
[13]
  IC50: 3.99 µM

## Cc1ccc(NC2=CC(=O)c3sc(C)nc3C2=O)cc1 [5-(N-(4-Methylphenyl)amino)-2-methyl-4,7-dioxobenzothiazole]
[8]
  IC50: 0.39 µM

## Oc1c(Cl)cc(Cl)c2cccnc12 [AS-229]
[14]
  IC50: 7.24 µM
[15]
  Kd: 4.6 µM

## O=C1c2c(O)cccc2[C@H]([C@@H]2O[C@H](CO)[C@@H](O)[C@H](O)[C@H]2O)c2cc(CO)cc(O)c21 [CHEBI:2991]
[2]
  IC50: 15.7 µM
[3]
  IC50: 13.2 µM

## Nc1ccc2cc3ccc(N)cc3nc2c1 [acridine-3,6-diamine]
[16]
  IC50: 1.66 µM

Reference: BindingDB's records for doi:10.1016/j.bmcl.2005.08.100 (the State University of New Jersey, 2022)
